Substitutions are numbered along the chain they refer to.
Columns and labels:
AKR1C3 = biological target: T1, AKR1C3 (Homo sapiens, UniProt P42330); experiment: Spectrophotometric inhibition assay, 1-acenaphthenol oxidation with NAD+; assay type: biochemical; settings: pH 9.0, screening at 400 μM
T1 sequence (P42330 1-323): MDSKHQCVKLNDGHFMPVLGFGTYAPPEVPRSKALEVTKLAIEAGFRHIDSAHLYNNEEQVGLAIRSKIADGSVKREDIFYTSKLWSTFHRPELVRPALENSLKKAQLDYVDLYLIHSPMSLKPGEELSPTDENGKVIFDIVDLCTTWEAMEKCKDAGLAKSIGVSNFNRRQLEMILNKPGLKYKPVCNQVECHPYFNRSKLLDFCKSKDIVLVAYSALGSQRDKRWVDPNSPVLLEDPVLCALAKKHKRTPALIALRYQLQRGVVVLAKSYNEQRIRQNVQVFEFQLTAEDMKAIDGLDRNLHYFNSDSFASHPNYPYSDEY

AKR1C1-3 = experiment: Isoform profile across the AKR1C enzymes; assay type: biochemical, human; settings: 1-acenaphthenol oxidation, NAD+, pH 9.0
AKR1C2 = biological target: T2, AKR1C2 (Homo sapiens, UniProt P52895); experiment: Spectrophotometric inhibition assay, 1-acenaphthenol oxidation with NAD+; assay type: biochemical; settings: pH 9.0, screening at 400 μM
T2 sequence (P52895 1-323): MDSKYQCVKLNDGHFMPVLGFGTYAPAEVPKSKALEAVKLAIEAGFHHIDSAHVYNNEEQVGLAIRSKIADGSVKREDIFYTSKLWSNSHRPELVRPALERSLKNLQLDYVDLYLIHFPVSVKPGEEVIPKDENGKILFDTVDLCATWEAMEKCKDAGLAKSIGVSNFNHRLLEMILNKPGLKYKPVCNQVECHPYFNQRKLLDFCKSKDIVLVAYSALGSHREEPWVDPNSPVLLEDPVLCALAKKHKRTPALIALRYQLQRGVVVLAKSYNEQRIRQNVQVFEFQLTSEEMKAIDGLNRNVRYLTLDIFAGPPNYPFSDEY

AKR1C1 = biological target: T3, AKR1C1 (Homo sapiens, UniProt Q04828); experiment: as above; assay type: biochemical; settings: pH 9.0, screening at 400 μM
T3 sequence (Q04828 1-323): T2 sequence (P52895 1-323) with V38T, H47R, V54L, S87C, M151V, H170R, L172Q

Structure (SMILES) | inhibition of AKR1C3 (in words) (AKR1C3) | inhibition profile / isoform selectivity on AKR1C enzymes (in words) (AKR1C1-3) | inhibition of AKR1C2 (in words) (AKR1C2) | inhibition of AKR1C1 (in words) (AKR1C1)
O=C(O)c1ccc(CNCc2ccccn2)cc1 [Compound 18] | moderate |  |  | 
O=C(NCc1cc(=O)[nH]cn1)c1cc2ccccn2n1 [Compound 27, N-((6-oxo-1,6-dihydropyrimidin-4-yl)methyl)pyrazolo[1,5-a]pyridine-2-carboxamide] |  | selective AKR1C3 inhibitors |  | 
CC(=O)Nc1ccc(C(C#N)c2ccccc2)cc1 (stereo not shown) [Compound 24, N-(4-(cyano(phenyl)methyl)phenyl)acetamide] |  |  | moderate inhibitor | 
O=C(O)c1cc(NC(=O)c2ccccc2F)ccc1O [Compound 1, 5-(2-fluorobenzamido)salicylic acid] | moderate |  |  | 
Cc1ccc(NC(=O)c2cccnc2)c(C(=O)O)c1 [Compound 10] | weak inhibitor |  |  | weak inhibitor
NC(=O)c1ccccc1/N=C/c1cccc(O)c1 [Compound 5, 2-(3-hydroxybenzylideneamino)benzamide] |  | selective AKR1C3 inhibitor |  | 
O=C(CSc1ncnc2[nH]cnc12)Nc1ccccn1 [Compound 25, 2-((9H-purin-6-yl)thio)-N-(pyridin-2-yl)acetamide] |  | selective AKR1C1 inhibitor |  | 
NC(=O)c1ccccc1NC(=O)c1ccncc1 [Compound 7] |  | low inhibitory effect |  | 
Cc1cccc(C(=O)Nc2ccccc2C(N)=O)c1 [Compound 8] |  | low inhibitory effect |  | 
Cc1cc(C(=O)Nc2ccc(O)c(C(=O)O)c2)oc1C [Compound 3, 5-(4,5-dimethylfuran-2-carboxamido)-salicylic acid] |  | selective AKR1C3 inhibitor | very low inhibition | no observable inhibition
Cc1oc(C(N)=O)cc1COc1ccccc1C(N)=O [Compound 4, 4-((2-carbamoylphenoxy)methyl)-5-methylfuran-2-carboxamide] | moderate inhibitor | partially selective towards AKR1C1 | moderate inhibitor | 

Source: article PMC3470935 (Journal of medicinal chemistry, 2012)
